Where a name gives a salt, the structure may show the parent alone.
What was measured:
[1] = tested on: intestinal microbial communities; test: EL-PAT: 16S rRNA V4 sequencing of fecal, ileal and cecal microbiota; format: in vivo, C57BL/6 mice
Description: For the experiments, dams and their litters were divided into control and antibiotic groups. In the EL-PAT study dams in the antibiotic groups received Tylosin tartrate (Sigma Aldrich, St. Louis Mo.) dissolved in distilled deionized water (neutral pH) at a concentration of 0.33 mg/ml, and dams in the control group received non-acidified water. Mice in the PAT3 group received two additional doses of antibiotics at day 27 and 36 of life for 3 days. In some experiments, C57BL/6 mice were exposed to one, PAT1, (n=17, M=9, F=8) or three, PAT3, (n=19, M=10, F=9) doses of the macrolide Tylosin in non-acidified water or non-acidified water alone (control, n=12, M=9, F=3), early-in-life, to mirror pediatric antibiotic exposures. For the first antibiotic pulse […] of Tylosin tartrate (Sigma) was dissolved in 250 ml of non-acidified water and given to PAT1 and PAT3 lactating dams at pup day 5 of life for 5 days. For the second and third pulse, pups received the antibiotic directly at day 27 and day 36 of life respectively, for three days. Mice were sacrificed at 7 weeks of age and fecal, ileal and cecal contents were collected. Throughout the experiment mouse weight and fecal contents were collected. Fecal, ileal and cecal DNA were extracted using Mobio 96-well extraction kit (MO BIO Laboratories, Inc., CA). For amplicon library generation, the V4 region of 16s rRNA gene was amplified with gene specific primers (SEQ ID NOS: 39-43). Amplicons were prepared in triplicate, pooled and quantified. The 254 bp V4 region was sequenced using the Illumina MiSeq 2×150 bp platform (Illumina Inc., CA). Forward and reverse reads were joined using the ea-utils module fastq-join. Demultiplexing and operational taxonomic unit (OTU) picking were performed using the bioinformatic tool Qiime, while pair-end reads were demultiplexed with the script split_libraries_fastq.py. Reads were quality filtered at a phred score of 20 using -q flag, and the flag --rev_comp_mapping allowed reading of the reverse complement barcode before demultiplexing. Open referenced OTU picking was performed using pick_open_reference_otus.py script to assign a taxonomy for each OTU representative sequence and build a phylogenetic tree, and an OTU table. For alpha and beta diversity, samples were rarified at a sequencing depth of 1000.

[2] = tested on: splenic CD4+ and CD8+ T-cells; test: NOD: flow cytometry of IFNγ-producing splenic T-cells; format: in vivo; settings: 6-week old male NOD mice, n=7, vs controls, p<0.01
Description: Leukocytes were isolated from spleens harvested from 6-week old control (n=7) and PAT-treated (n=7) NOD mice. Flow cytometric analysis was performed to assess T-cell cytokine production. Mann-Whitney U-test, ** p<0.01. Bar heights represent the means and error bars represent the standard deviations. […] Taxa with at least two significant timepoints (indicated by *) are illustrated at the phylum, genus, and species level. Dark grey and light grey coloration indicates enrichment at the specified time point in control and in PAT specimens, respectively.

[3] = tested on: ileum; test: EarlySTAT: ileal gene expression by qPCR in 4- and 8-week mice; format: in vivo, C57BL/6J mice; settings: STAT vs control
Source text: C57BL/6J (Jackson Labs, Bar Harbor, Me.) mice either received no antibiotics (control) or continuous STAT penicillin. Mice were weaned at 4 weeks onto normal chow (13.2% fat, 5053 PicoLab Rodent Diet 20, LabDiet, Brentwood, Mo.), then switched to a high fat diet (45% kcal from fat, D12451, Research Diets, New Brunswick, N.J.) at 6 weeks of life. Mice were sacrificed at 4, 8, and 18 weeks of age. The terminal[1 cm] ileum without Peyer's Patches [TI-] was collected for gene expression analysis by qPCR. The proximal 1 cm of ileum was used for histological analysis of tissue structure, and the remaining ileum was used to determine immunity phenotypes by flow cytometry.
C57BL6J mice were exposed to sub-therapeutic antibiotic treatment (STAT) with penicillin via their drinking water from birth, or no antibiotics (Control). Mice were fed a normal diet until 6 weeks of age, then they were fed high fat diet. 5 mice from each experimental group were sacrificed at 4 weeks, and 4 mice from each group were sacrificed at 8 weeks. The terminal[1 cm] ileum without Peyer's Patches [TI-] was collected for gene expression analysis by qPCR. The proximal 1 cm of ileum was used for histological analysis of tissue structure, and the remaining ileum was used to determine immunity phenotypes by flow cytometry. Ileal gene expression was also measured by microarray and the nCounter GX Mouse Immunology Kit (Nanostring Technologies, Seattle, Wash., USA).
Total RNA was extracted from mouse tissues using the RNeasy Mini Kit (Qiagen), according to the manufacturer's instructions. Total RNA was reverse transcribed to cDNA using the Verso™ cDNA Synthesis Kit (Thermo Scientific). To generate standards for expression analysis of each target gene, the cDNA region of interest was PCR-amplified and the PCR product was cloned into pGEM-T easy (Promega). qPCR was performed with LightCycler 480 SYBR Green I Master mix (Roche) and run in a LightCycler 480 system (Roche). Target mRNA was normalized to GAPDH mRNA as an internal control in each sample.
Ileal expression of T-bet [Th1], GATA3 [Th2], Foxp3 [Treg], and RORγt [Th17] (FIG. 4A), and IFNγ [Th1], IL-4 [Th2], TGFβ1 [Treg], and IL-17 [Th17] (FIG. 4B) (4-week; Control, n=4, STAT, n=5, 8-week; Control, n=3, STAT, n=4) was quantitated by qPCR and normalized by GAPDH expression. […] These studies provide evidence that low dose antibiotic exposure can be used to change immune effector T-cell populations and the effector molecules they produce.
Ileal expression of defensin β1, Reg3γ, and Relmβ (4-week; Control n=4, STAT n=5, 8-week; Control n=3, STAT n=4) was quantitated by qPCR and normalized by GAPDH expression. […] These findings provide examples of how the STAT exposure changed intestinal expression of antimicrobial peptide genes.
Ileal expression of the IgA J-chain, polymeric Ig receptor (pIgR), both related to polymeric IgA function, and TLR2 and TLR4 was quantitated by qPCR and normalized by GAPDH expression in 4- and 8-week STAT [4-week; Control n=3, STAT n=4, 8-week; Control n=3, STAT n=4].

[4] = PAT3 group, two additional doses
[5] = at sacrifice, six-weeks (PAT1) and one-week (PAT3) after last pulse
[6] = one therapeutic dose, dams and offspring
[7] = 4- and 8-week, qPCR and microarray

SMILES: CC[C@H]1OC(=O)C[C@@H](O)[C@H](C)[C@@H](O[C@@H]2O[C@H](C)[C@@H](O[C@H]3C[C@@](C)(O)[C@@H](O)[C@H](C)O3)[C@H](N(C)C)[C@H]2O)[C@@H](CC=O)C[C@@H](C)C(=O)/C=C/C(C)=C/[C@@H]1CO[C@@H]1O[C@H](C)[C@@H](O)[C@@H](OC)[C@H]1OC [Tylosin, Tylosin tartrate]
- relative abundance of Blautia producta [1, 4]: blooms
- relative abundance of family Enterobacteriaceae [1, 4]: blooms
- ileal evenness [1, 5]: decreases
- ileal richness [1, 5]: decreases
- abundance of Bifidobacterium (ileal, LEfSe) ([1]; early-life PAT): decreases
- abundance of S24-7 (ileal, LEfSe) ([1]; early-life PAT): decreases
- abundance of SFB (ileal, LEfSe) ([1]; early-life PAT): decreases
- relative abundance of Akkermansia muciniphila (ileal, LEfSe) ([1]; early-life PAT): increases
- ileal microbial communities (PCoA, Jenson-Shannon divergence) ([1]; male and female, independent of sex): significantly different from Control
- fecal, cecal and ileal microbial diversity (phylogenetic diversity) ([1]; male pups over time, one or three pulses vs Control): decreases
- intestinal microbial populations (PCoA, weighted Unifrac) ([1]; one and three therapeutic doses early in life, males and females): significantly alters
- Segemented Filamentous Bacteria [1, 6]: loss
- relative abundance of Bacteroides uniformis [1, 6]: blooms
- relative abundance of Akkermansia muciniphila ([1]; one therapeutic dose, dams and offspring, fecal, ileal and cecal samples): blooms
- proportion of IFNγ-producing splenic CD4+ T-cells [2]: increased
- proportion of IFNγ-producing splenic CD8+ T-cells [2]: increased

SMILES: CC1(C)S[C@@H]2[C@H](NC(=O)COc3ccccc3)C(=O)N2[C@H]1C(=O)[O-].[K+] [STAT, penicillin VK]
- expression of all four transcription factors (T-bet, GATA3, Foxp3, RORγt) ([3]; 4- and 8-week mice): trended downwards
- ileal B cell markers (IgA J-chain, pIgR) [3, 7]: significantly down-regulated
- ileal TLRs (TLR2, TLR4) [3, 7]: downward trend
- ileal expression of IL-17 [Th17] ([3]; at 4- and 8-weeks, p<0.05): significantly down-regulated
- ileal expression of RORγt [Th17] ([3]; at 4- and 8-weeks, p<0.05): significantly down-regulated
- ileal expression of T-bet [Th1] ([3]; at 4- and 8-weeks, p<0.05): significantly down-regulated
- ileal expression of IFNγ [Th1] ([3]; at 4-weeks, p<0.05): significantly down-regulated
- ileal Relmβ expression ([3]; at 4 weeks, p<0.05): significantly lower
- ileal expression of GATA3 [Th2] ([3]; at 8-weeks, p<0.05): significantly down-regulated
- ileal expression of TGFβ1 [Treg] ([3]; at 8-weeks, p<0.05): significantly down-regulated
- ileal expression of all three antimicrobial peptides (defensin β1, Reg3γ, Relmβ) ([3]; at 8 weeks, p<0.05): significantly lower

Reference: patent US20160120915A1, “METHODS FOR MANIPULATING IMMUNE RESPONSES BY ALTERING MICROBIOTA” (NEW YORK UNIVERSITY, priority 2013, published 2016)
